Ends that are not written are not given here.
How the values were obtained:
Assay type in all cases: cell-based
Escherichia coli = assay: Growth inhibition of Gram-negative bacteria by P18 (optical density at 620 nm); settings: for optical density at 620 nm: E. coli suspension, 25 μM P18 solution, mean of 8 mixtures
Description: The growth inhibition by P18 was investigated on Gram-positive and Gram-negative bacteria. Shin et al. 1999 (loc.cit.) had already detected an inhibition on the model organisms Escherichia coli and Bacillus subtilis within a period up to 18 hours.
The growth medium used for this was LB medium as complex medium for the organisms Escherichia coli, Bacillus subtilis and Brevibacterium epidermidis. The medium comprised 10 g of trypton, 5 g of yeast extract and 10 g of NaCl per liter.
The growth test was carried out as follows: A shake flask with medium was inoculated with Escherichia coli, Bacillus subtilis or Brevibacterium epidermidis and incubated with shaking overnight at 30° C. and 200 rpm. A 96-well microtiter plate was filled with in each case 100 μl LB medium and inoculated with E.-coli, B.-subtilis or B. epidermidis suspensions of the overnight culture. The bacteria suspension was adjusted at the start of the experiment to an optical density, measured at 620 nm, of about 0.02. The concentrates of the P18 inhibitor solutions were 1 mM in water.
The growth of the following mixtures was compared by measuring the optical density:
bacteria suspension without the addition of an inhibitor;
bacteria suspension and addition of an aqueous P18 solution with a final concentration of 25 μM. The aqueous P18 solution had been freshly prepared.
The growth was observed over a period of 40 hours by measuring the optical density. […] The growth of Gram-positive bacteria was inhibited initially.

Malassezia furfur [1] = assay: Long-term stability of P18 (12 weeks at 37° C.) tested on Malassezia furfur, CFU; settings: for colony-forming units: mean ± SD
Description: Since storage over longer time periods may be necessary, in the following a 1 mM P18 peptide solution (P18 sequence H-KWKLFKKIPKFLHLAKKF-NH2; SEQ ID NO: 3) was stored for 12 weeks at 37° C. and the antifungal activity of the stored solution on Malassezia furfur was compared to the activity of a freshly prepared 1 mM P18 peptide solution. This was done through a growth test, which was carried out as follows:
(§1) Growth medium: M472-Pityrosporum medium according to DSMZ
(§2) The components were sterilized at 121° C., 1 bar superatmospheric pressure for 20 minutes.
(§3) 2 g/L of olive oil (sterilized by filtration and, after autoclaving, added to the other components)
(§4) Since it was a two-phase medium, the complete medium was treated with sonication in order to enlarge the phase boundary.
(§5) For agar plates, if appropriate, 150 g/L of agar agar were added to the medium.
(§6) The growth test was carried out as follows: A shake flask with M472-Pityrosporum medium was inoculated with M. furfur and incubated with shaking overnight at 30° C. and 200 rpm.
A 96-well microtiter plate was filled with in each case 100 μl of M472-Pityrosporum medium and inoculated with M. furfur suspension of the overnight culture. The M. furfur suspension was adjusted at the start of the experiment to an optical density, measured at 600 nm, of 0.02. The concentrates of the inhibitor solutions were 1 mM in water.
The growth of the following batches was compared:
M. furfur suspension without the addition of an inhibitor.
M. furfur suspension and addition of a fresh aqueous P18 solution with a final concentration of 50 μM.
M. furfur suspension and addition of a fresh aqueous P18 solution with a final concentration of 25 μM.
M. furfur suspension and addition of a P18 solution that had been stored at 37° C. for 12 weeks, with a final concentration of 50 μM.
M. furfur suspension and addition of a P18 solution that had been stored at 37° C. for 12 weeks, with a final concentration of 25 μM.
(§7) The microtiter plate was incubated with shaking at 30° C.
The growth was observed over 24 hours by measuring the optical density. The colony-forming units (CFU) were then determined by plating out 1 μl and 5 μl from each of the suspensions and, after incubation for 6 days, counting the colonies. The CFU was determined in order to exclude an influence of the two-phase medium and also the growth form of M. furfur on the optical density. The experiments were carried out at least in triple determinations.

Malassezia furfur [2] = assay: Growth inhibition of Malassezia furfur with equal concentrations (% by weight) of P18, Zincpyrithione, Climbazole and Ketoconazole, CFU; settings: for colony-forming units: 50 μM final conc., mean ± SD
Description: as §1, §2, §3, §4, §5, §6
A 96-well microtiter plate was filled with in each case 100 μl of M472-Pityrosporum medium and inoculated with M. furfur suspension of the overnight culture. The M. furfur suspension was adjusted at the start of the experiment to an optical density, measured at 600 nm, of 0.02. The concentrates of the inhibitor solutions were 1 mM in DMSO for the peptide P18 and 10 mM in DMSO for Zincpyrithione, Ketoconazole and Climbazole. The DMSO final concentrations were maintained the same in all experiments. This means that a corresponding volume of DMSO was added to the mixture in the case of a higher concentration of Zincpyrithione, Ketoconazole or Climbazole concentrate in order to ensure comparability to the mixtures containing P18.
The growth of the following batches was compared by measuring the optical density:
M. furfur suspension and addition of P18 solution with a final concentration of 50 μM (equal to 0.0115% (w/w))
M furfur suspension and addition of Zincpyrithione (ZPT) solution with a final concentration of 362 μM (comparison to the mixture containing 50 μM of the peptide P18)
M furfur suspension and addition of Ketoconazole solution with a final concentration of 216 μM (comparison to the mixture containing 50 μM of the peptide P18)
M furfur suspension and addition of Climbazole solution with a final concentration of 390 μM (comparison to the mixture containing 50 μM of the peptide P18)
as §7
After 24 hours of incubation, the colony-forming units (CFU) were determined by plating out 10 μl of medium from each of the suspensions on agar plates. After incubation for 6 days, the colonies on the plates were counted. The CFU was determined in order to exclude an influence of the two-phase medium and also the growth form of M. furfur on the optical density. The experiments were carried out in at least two independent experiments, each with double determination.

In the case of “KWKLFKKIPKFLHLAKKF-NH2 [P18, KWKLFKKIPKFLHLAKKF-NH2]”, the “growth of E. coli (in words)” value (Escherichia coli; 25 μM, period of 40 hours) is reported as “effectively inhibited”, the “optical density at 620 nm” value (Escherichia coli; incubation time 16 h) is reported as 0.09 and the “optical density at 620 nm” value (Escherichia coli; incubation time 24 h) is reported as 0.06. The “optical density at 620 nm” value (Escherichia coli; incubation time 40 h) was 0.07, the “influence of storage on the activity of the P18 peptide solution” value (Malassezia furfur [1]; 1 mM solution stored for 12 weeks at 37° C.) was “has not influenced the activity” and the colony-forming units (Malassezia furfur [1]; aqueous P18 solution stored 12 weeks at 37° C., 25 μM final conc., incubation time 16-18 h) was 6 ± 7. The colony-forming units (Malassezia furfur [1]; aqueous P18 solution stored 12 weeks at 37° C., 25 μM final conc., incubation time 24 h) was 5 ± 5, the colony-forming units (Malassezia furfur [1]; aqueous P18 solution stored 12 weeks at 37° C., 50 μM final conc., incubation time 16-18 h) was 0 ± 0 and the colony-forming units (Malassezia furfur [1]; aqueous P18 solution stored 12 weeks at 37° C., 50 μM final conc., incubation time 24 h) was 1 ± 1. The colony-forming units (Malassezia furfur [1]; fresh aqueous P18 solution, 25 μM final conc., incubation time 16-18 h) was 5 ± 8, the colony-forming units (Malassezia furfur [1]; fresh aqueous P18 solution, 25 μM final conc., incubation time 24 h) was 1 ± 2 and the colony-forming units (Malassezia furfur [1]; fresh aqueous P18 solution, 50 μM final conc., incubation time 16-18 h) was 0 ± 0. For the same substance, the colony-forming units (Malassezia furfur [1]; fresh aqueous P18 solution, 50 μM final conc., incubation time 24 h) was 1 ± 1, the “reduction of CFU compared to reference substances” value (Malassezia furfur [2]; 50 μM (0.0115% (w/w)), equal % by weight, 24 hours) was “more effectively than the reference substances Zincpyrithione, Climbazole and Ketoconazole” and the colony-forming units (Malassezia furfur [2]; incubation time 24 h) was 1 ± 1. For the same substance, the colony-forming units (Malassezia furfur [2]; incubation time 40 h) was 0 ± 0.

Source: patent US8765688B2, “Anti-dandruff compositions containing peptides” (priority 2007, dated 2014)
